{"source": "patent US11197846B2", "about": "“Methods and compositions for treating cannabis use disorder and mitigating cannabinoid withdrawal” (Pleopharma, L.L.C., priority 2020, dated 2021)", "key": {"[1]": {"conditions": "pH values ranging from 1.2 to 7.0; cited from earlier work"}, "[2]": {"assay": "Plasma pharmacokinetics of nabilone and gabapentin after oral PP-01 once daily for four doses (LC-MS/MS), Example 1 clinical study", "conditions": "for AUC(0-t) / AUC(0-inf) / Cmax / Tmax / half-life: human, plasma, oral; for AUC(0-inf): AUC0-∞; for Pharmacokinetics compared with historical controls: nabilone and gabapentin given together as PP-01", "source_text": "A total of 14 eligible healthy volunteers with moderate to severe CUD and no contraindications to nabilone or gabapentin were randomized to receive PP-01 (nabilone and gabapentin; Test) or Placebo, in a 1:1 ratio, from a randomization table at the start of Period 1 (Day −1). If participants received PP-01 in Period 1, they received Placebo in Period 2; similarly, if participants received Placebo in Period 1, they received PP-01 in Period 2. Participants received oral doses of PP-01 or Placebo approximately 2 hours before a standardized meal on the morning on the second day of each inpatient admission (Day 1, Periods 1 and 2) and continued to receive once-daily dosing in the morning for a total of four doses per period.\nOn Day 1, the 0-hour PK blood draw was obtained within 30 minutes prior to the first dose of study drug which was administered by the Investigator (or a staff member as delegated by the Investigator) at approximately 120 minutes prior to the morning standardized breakfast. Venous blood samples of approximately 10 mL each were obtained at the following times following the Day 1 dose to assess nabilone and gabapentin concentrations: 30 and 60 minutes, and 2, 3, and 4 hours (within ±5 minutes of each time point), and 6, 8, 12, and 24 hours (within ±10 minutes of each time point) after study drug administration. The CWS was completed by participants prior to dosing (Baseline) and at 4- and 10-hours post-dose and the sleep questionnaire was completed in the morning prior to dosing. Blood samples to assess serum cortisol were obtained in the evening. Routine safety assessments were performed as scheduled.\nOn Day 4, the 0-hour PK blood draw was obtained within 30 minutes prior to the dosing of study drug, which was administered by the Investigator (or a staff member as delegated by the Investigator) at approximately 120 minutes prior to the morning standardized breakfast. Venous blood samples of approximately 10 mL each were obtained at the following times following the Day 4 dose to assess nabilone and gabapentin concentrations: 30 and 60 minutes, and 2, 3, and 4 hours (within ±5 minutes of each time point), and 6, 8, 12, and 24 hours (within ±10 minutes of each time point) after study drug administration. The CWS was completed by participants prior to dosing and at 4- and 10-hours post-dose and the sleep questionnaire was completed in the morning prior to dosing; the PGI-S and CGI were completed approximately 4 hours after dosing. Blood samples to assess serum cortisol were obtained in the evening. Routine safety assessments were performed as scheduled.\nThe following PK assessments were assessed in Periods 1 and 2 on Day 1, Day 2 (trough), Day 4, Day 5 (trough), and Day 8 for nabilone and gabapentin. Baseline concentrations were defined as the 0-minute time point (within 30 minutes of dosing) on Day 1 (Periods 1 and 2). • Area under the plasma concentration-time curve from 0 to the last measurable concentration (AUC0-t) • Area under the plasma concentration-time curve extrapolated to infinity (AUC0-∞) • Peak (maximum) plasma concentration of the drug (Cmax) • Time to peak (maximum) plasma concentration (tmax) • Elimination half-life (t1/2)\nVenous blood samples of 10 ml each were collected with K2EDTA anticoagulant for Baseline levels of Δ-9-THC, 11-OHTHC and THC-COOH on Day −1 (Periods 1 and 2). For Periods 1 and 2, levels of nabilone and gabapentin were assessed following the time points listed in Table 2 following the first and fourth dose. Study participants returned on Day 8 (Periods 1 and 2) to have PK samples drawn to help determine the terminal half-life of nabilone. The Baseline (0-hour) time point was collected within 30 minutes prior to dosing.\nBaseline concentrations of Δ-9-THC, 11-OHTHC and THC-COOH were determined using a validated liquid chromatographic-tandem mass spectroscopy (LC-MS/MS) assay with a lower limit of quantification (LLOQ) of 0.200 ng/mL."}, "[3]": {"conditions": "reported; cited from earlier work"}, "GABA receptors": {"tested_on": "GABA receptors", "conditions": "concentrations at or below 1 millimolar; cited from earlier work"}, "[4]": {"conditions": "6 mg, nabilone 6 mg, Days 1-2, both sequences, arithmetic mean"}, "[5]": {"conditions": "6 mg, nabilone 6 mg, Days 4-5, both sequences, arithmetic mean"}, "[6]": {"conditions": "600 mg, gabapentin 600 mg, Sequence AB, Days 1-2, arithmetic mean"}, "[7]": {"conditions": "600 mg, gabapentin 600 mg, Sequence AB, Days 4-5, arithmetic mean"}, "[8]": {"conditions": "600 mg, gabapentin 600 mg, Sequence BA, Days 1-2, arithmetic mean"}, "[9]": {"conditions": "600 mg, gabapentin 600 mg, Sequence BA, Days 4-5, arithmetic mean"}}, "note": "“Also recorded” adds a separate entry of the source."}
{"smiles": "CCCCCCC(C)(C)c1cc(O)c2c(c1)OC(C)(C)C1CCC(=O)CC21", "note": "(racemic) [Nabilone, (±)-trans-3-(1,1-dimethylheptyl)-6,6a,7,8,10,10a-hexahydro-1-hydroxy-6-6-dimethyl-9H-dibenzo[b,d]pyran-9-one]", "values": [{"measurement": "solubility in aqueous media", "setting": "[1]", "value": "less than 0.5 mg/L"}, {"measurement": "AUC(0-t)", "setting": "[2]; 6 mg, AUC0-24, nabilone 6 mg, Days 1-2, both sequences, arithmetic mean", "value": 34.1, "unit": "ng·h/mL"}, {"measurement": "AUC(0-t)", "setting": "[2]; 6 mg, AUC0-24, nabilone 6 mg, Days 4-5, both sequences, arithmetic mean", "value": 33.9, "unit": "ng·h/mL"}, {"measurement": "AUC(0-inf)", "setting": "[2]; [4]", "value": 35.8, "unit": "ng·h/mL"}, {"measurement": "AUC(0-inf)", "setting": "[2]; [5]", "value": 37.4, "unit": "ng·h/mL"}, {"measurement": "Cmax", "setting": "[2]; [4]", "value": 8.51, "unit": "ng/mL"}, {"measurement": "Cmax", "setting": "[2]; [5]", "value": 8.59, "unit": "ng/mL"}, {"measurement": "Tmax", "setting": "[2]; 6 mg, Tmax, nabilone 6 mg, Days 1-2, both sequences, PK population, arithmetic mean ± SD", "value": "2.5 ± 1.5", "unit": "h"}, {"measurement": "Tmax", "setting": "[2]; 6 mg, Tmax, nabilone 6 mg, Days 4-5, both sequences, arithmetic mean ± SD", "value": "2.3 ± 0.9", "unit": "h"}, {"measurement": "half-life", "setting": "[2]; 6 mg, t1/2, nabilone 6 mg, Days 1-2, both sequences, arithmetic mean ± SD", "value": "6.4 ± 1.7", "unit": "h"}, {"measurement": "half-life", "setting": "[2]; 6 mg, t1/2, nabilone 6 mg, Days 4-5, both sequences, arithmetic mean ± SD", "value": "9.9 ± 2.5", "unit": "h"}, {"measurement": "Tmax", "setting": "[2]; mean time to maximal concentration (Tmax), nabilone", "value": "~2.5", "unit": "h"}, {"measurement": "Pharmacokinetics compared with historical controls", "setting": "[2]", "value": "consistent with historical controls"}, {"measurement": "accumulation over the period studied", "setting": "[2]; nabilone, Days 1 to 2 vs Days 4 to 5", "value": "no accumulation occurred; also recorded: minimal accumulation"}]}
{"smiles": "CCCCCc1cc(O)c2c(c1)OC(C)(C)[C@@H]1CCC(CO)=C[C@@H]21", "note": "[11-OH-delta-9-THC, 11-hydroxy-delta-9-tetrahydrocannabinol]", "values": [{"measurement": "agonist potency relative to delta-9-THC", "setting": "[3]", "value": "more potent agonist than delta-9-THC"}]}
{"smiles": "NCC1(CC(=O)O)CCCCC1", "note": "[Gabapentin, 1-(aminomethyl)cyclohexaneacetic acid]", "values": [{"measurement": "binding to GABA receptors", "setting": "GABA receptors", "value": "has not been shown to bind to GABA receptors"}, {"measurement": "t1/2", "setting": "[2]; gabapentin 600 mg, Sequence BA, Days 1-2, arithmetic mean", "value": 5.3, "unit": "h"}, {"measurement": "exposure metrics (Cmax, AUC0-24, AUC0-∞) over time", "setting": "[2]; gabapentin, Days 4 to 5 vs Days 1 to 2", "value": "exposure slightly increased at Days 4 to 5 compared to Days 1 to 2"}, {"measurement": "AUC(0-t)", "setting": "[2]; 600 mg, AUC0-24, gabapentin 600 mg, Sequence AB, Days 1-2, arithmetic mean", "value": 65700, "unit": "ng·h/mL"}, {"measurement": "AUC(0-t)", "setting": "[2]; 600 mg, AUC0-24, gabapentin 600 mg, Sequence AB, Days 4-5, arithmetic mean", "value": 70500, "unit": "ng·h/mL"}, {"measurement": "AUC(0-t)", "setting": "[2]; 600 mg, AUC0-24, gabapentin 600 mg, Sequence BA, Days 1-2, arithmetic mean", "value": 53600, "unit": "ng·h/mL"}, {"measurement": "AUC(0-t)", "setting": "[2]; 600 mg, AUC0-24, gabapentin 600 mg, Sequence BA, Days 4-5, arithmetic mean", "value": 58100, "unit": "ng·h/mL"}, {"measurement": "AUC(0-inf)", "setting": "[2]; [6]", "value": 70000, "unit": "ng·h/mL"}, {"measurement": "AUC(0-inf)", "setting": "[2]; [7]", "value": 74900, "unit": "ng·h/mL"}, {"measurement": "AUC(0-inf)", "setting": "[2]; [8]", "value": 57200, "unit": "ng·h/mL"}, {"measurement": "AUC(0-inf)", "setting": "[2]; [9]", "value": 63100, "unit": "ng·h/mL"}, {"measurement": "Cmax", "setting": "[2]; [6]", "value": 6080, "unit": "ng/mL"}, {"measurement": "Cmax", "setting": "[2]; [7]", "value": 7010, "unit": "ng/mL"}, {"measurement": "Cmax", "setting": "[2]; [8]", "value": 5170, "unit": "ng/mL"}, {"measurement": "Cmax", "setting": "[2]; [9]", "value": 5510, "unit": "ng/mL"}, {"measurement": "Tmax", "setting": "[2]; 600 mg, Tmax, gabapentin 600 mg, Sequence AB, Days 1-2, arithmetic mean ± SD", "value": "3.7 ± 1.1", "unit": "h"}, {"measurement": "Tmax", "setting": "[2]; 600 mg, Tmax, gabapentin 600 mg, Sequence AB, Days 4-5, arithmetic mean ± SD", "value": "3.3 ± 0.8", "unit": "h"}, {"measurement": "Tmax", "setting": "[2]; 600 mg, Tmax, gabapentin 600 mg, Sequence BA, Days 1-2, arithmetic mean ± SD", "value": "3.7 ± 0.5", "unit": "h"}, {"measurement": "Tmax", "setting": "[2]; 600 mg, Tmax, gabapentin 600 mg, Sequence BA, Days 4-5, arithmetic mean ± SD", "value": "1 ± 1.1", "unit": "h"}, {"measurement": "half-life", "setting": "[2]; 600 mg, t1/2, gabapentin 600 mg, Sequence AB, Days 1-2, arithmetic mean", "value": 5.4, "unit": "h"}, {"measurement": "half-life", "setting": "[2]; 600 mg, t1/2, gabapentin 600 mg, Sequence AB, Days 4-5, arithmetic mean", "value": 5.5, "unit": "h"}, {"measurement": "half-life", "setting": "[2]; 600 mg, t1/2, gabapentin 600 mg, Sequence BA, Days 4-5, arithmetic mean", "value": 6.3, "unit": "h"}, {"measurement": "AUC(0-t)", "setting": "[2]; AUC0-24, gabapentin, range across days and sequences", "value": "53600 to 70500", "unit": "ng·h/mL"}, {"measurement": "Tmax", "setting": "[2]; mean Tmax, gabapentin, across days and sequences", "value": "3.3 to 4", "unit": "h"}, {"measurement": "half-life", "setting": "[2]; mean t1/2, gabapentin, range across treatment (days, sequence)", "value": "5.3 to 6.3", "unit": "h"}, {"measurement": "Pharmacokinetics compared with historical controls", "setting": "[2]", "value": "consistent with historical controls"}]}
